Experimental data: patent publication US8933070B2, “Methods of targeting PTEN mutant diseases and compositions therefor” (University Health Network, priority 2010, dated 2015)

Legend:
Assay in all cases: Cell growth inhibition, SRB assay, extended panel
Type in all cases: cell-based
[1] = test system: 184A1 immortalized breast cell line; conditions: 184A1, read-out: GI50 Range 184A1
Experimental: (§1) Breast cancer cells (MCF-7, MDA-MB-468 and HCC1954), colon cancer cells (SW620) and lung cancer cells (A549), together with human mammary epithelial primary cells (HMEC) were seeded (1000 to 4000 per 80 μl per well depending on the cell growth rate) into 96-well plates 24 hours before compound overlay. Compounds were prepared as 10 mM stock solutions in 100% DMSO which were diluted with DMEM (Dulbecco's Modified Eagle's Medium) cell growth Medium (Invitrogen, Canada) containing 10% FBS (Fetal Bovine Serum) to concentrations ranging from 50 nM to 250 μM. Aliquots (20 μl) from each concentration were overlaid to 80 μl of the pre-seeded cells in the 96-plates to make final concentrations of 10 nM to 50 μM. The cells were cultured for 5 days before the Sulforhodamine B (SRB) assay was performed to determine the compound's cell growth inhibition activity.
(§2) Sulforhodamine B (Sigma, Canada) is a water-soluble dye that binds to the basic amino acids of cellular proteins. Thus, colorimetric measurement of the bound dye provides an estimate of the total protein mass that is related to the cell number. The cells are fixed in situ by gently aspirating off the culture media and adding 50 μl ice cold 10% Trichloroacetic Acid (TCA) per well and incubated at 4° C. for 30-60 min. The plates are washed with water five times and allowed to air dry for 5 min. Addition of 50 μl 0.4% (w/v) SRB solution in 1% (v/v) acetic acid to each well and incubatation for […] at RT completes the staining reaction. Following staining, plates are washed four times with 1% acetic acid to remove unbound dye and then allowed to air dry for 5 min. The stain is solubilized with 100 μl of 10 mM Tris pH 10.5 per well. Absorbance is read at 570 nm.
(§3) The percentage (%) of relative growth inhibition was calculated by comparing to DMSO-treated only cells (100%). GI50's were determined for compounds with cytotoxic activity. The GI50 was calculated using GraphPad PRISM software (GraphPad Software, Inc., USA).
(§4) The SRB assay described above was used to assay test compounds against the extended panel (Table 6).

518A2 melanoma cell line = conditions: Homo sapiens, 518A2, read-out: GI50 Range 518A2
Experimental: as §1, §2, §3, §4

[2] = test system: A172 brain cancer cell line; conditions: Homo sapiens, A 172, read-out: GI50 Range A172
Experimental: as §1, §2, §3, §4

[3] = test system: BT-474 breast cancer cell line; conditions: Homo sapiens, BT-474, read-out: GI50 Range BT-474
Experimental: as §1, §2, §3, §4

[4] = test system: Colo 205 colon cancer cell line; conditions: Homo sapiens, COLO 205, read-out: GI50 Range Colo 205
Experimental: as §1, §2, §3, §4

[5] = test system: H358 lung cancer cell line; conditions: Homo sapiens, NCI-H358, read-out: GI50 Range H358
Experimental: as §1, §2, §3, §4

[6] = test system: HCT-15 colon cancer cell line; conditions: Homo sapiens, HCT-15, read-out: GI50 Range HCT-15
Experimental: as §1, §2, §3, §4

[7] = test system: Hs578T breast cancer cell line; conditions: Homo sapiens, Hs-578T, read-out: GI50 Range Hs578T
Experimental: as §1, §2, §3, §4

[8] = test system: Hs683 brain cancer cell line; conditions: Homo sapiens, Hs 683, read-out: GI50 Range Hs683
Experimental: as §1, §2, §3, §4

[9] = test system: OVCAR-3 ovarian cancer cell line; conditions: Homo sapiens, OVCAR-3, read-out: GI50 Range OVCAR-3
Experimental: as §1, §2, §3, §4

[10] = test system: PC-3 prostate cancer cell line; conditions: read-out: GI50 Range PC-3
Experimental: as §1, §2, §3, §4

[11] = test system: SK-N-SH brain cancer cell line; conditions: Homo sapiens, read-out: GI50 Range SK-N-SH
Experimental: as §1, §2, §3, §4

[12] = test system: SK-OV-3 ovarian cancer cell line; conditions: Homo sapiens, SK-OV-3, read-out: GI50 Range SK-OV-3
Experimental: as §1, §2, §3, §4

[13] = test system: SKBr-3 breast cancer cell line; conditions: Homo sapiens, SK-BR-3, read-out: GI50 Range SKBr-3
Experimental: as §1, §2, §3, §4

[14] = test system: SW626 ovarian cancer cell line; conditions: Homo sapiens, SW626, read-out: GI50 Range SW626
Experimental: as §1, §2, §3, §4

[15] = test system: T-47D breast cancer cell line; conditions: Homo sapiens, T47D, read-out: GI50 Range T-47D
Experimental: as §1, §2, §3, §4

[16] = test system: HCT116 p53^+/+ colon cancer cell line; conditions: Homo sapiens, HCT-116, read-out: GI50 Range HCT116 p53^+/+
Experimental: as §1, §2, §3
(§5) In addition to the cell lines tested as described above, selected compounds have been assayed against an extended panel. These include: breast cancer cell lines (T-47D, MDA-MB-231, Hs578T, 8T-474, SKBr-3 and HCC1954), a lung cancer cell line (H358), brain cancer cell lines (A172, Hs683 and SK-N-SH), colon cancer cell lines (Colo 205, HCT-15, HCT116 p53^+/+ and HCT116 p53^−/−), ovarian cancer cell lines (OVCAR-3, SK-OV-3 and SW626), a melanoma cell line (518A2), a prostate cancer cell line (PC-3) and an immortalized breast cell line (184A1). The SRB assay described above was used to assay test compounds against the extended panel (Table 6).

[17] = test system: HCT116 p53^−/− colon cancer cell line; conditions: Homo sapiens, HCT-116, read-out: GI50 Range HCT116 p53^−/−
Experimental: as §1, §2, §3, §5

Measured: GI50

COc1ccc2c(c1)/C(=C\c1ccc3c(/C=C/c4ccc(N5CCN(C)CC5)nc4)n[nH]c3c1)C(=O)N2 [Compound 3]
< 5 µM: all assays above
